{"source": "patent US7563570B2", "about": "“Method of determining a chemotherapeutic regimen for non small cell lung cancer based on BRCA1 expression” (Pangaea Biotech, priority 2004, dated 2009)", "key": {"breast cancer cell line": {"tested_on": "breast cancer cell line", "settings": "BRCA1 mRNA determined by RT-QPCR; cited from earlier work"}, "[1]": {"tested_on": "Mouse models carrying conditional disruption of BRCA1", "settings": "cited from earlier work"}, "[2]": {"tested_on": "SKOV-3 human ovarian cancer cell line", "settings": "cited from earlier work"}, "[3]": {"tested_on": "HCC1937 breast cancer cell line", "settings": "HCC1937, BRCA1 reconstituted vs BRCA1-negative; cited from earlier work"}, "[4]": {"tested_on": "non-small-cell lung cancer (NSCLC) patients", "assay": "Neoadjuvant gemcitabine/cisplatin followed by surgery in stage IIB, IIIA and IIIB NSCLC patients, outcome by quartile of tumor BRCA1 mRNA expression", "assay_type": "in vivo, human", "protocol": "In all patients, neoadjuvant chemotherapy was indicated after evaluation by a thoracic surgeon, a radiologist, a medical oncologist, and a radiation oncologist. Patients received three cycles of neoadjuvant chemotherapy; 51 received cisplatin 100 mg/m^2 day 1 plus gemcitabine 1250 mg/m^2 days 1 and 8 every 21 days, and four received carboplatin AUC=5 day 1 plus gemcitabine 1000 mg/m^2 days 1 and 8 every 21 days. A thoracotomy was performed within four to five weeks after the last chemotherapy cycle; the surgical procedure was based on the extent of tumor at the time of the initial presentation.\nWe examined BRCA1 gene expression in formalin-fixed, paraffin-embedded surgical resected specimens from the 55 patients as previously described: Specht K, et al. (2001) Am. J. Pathol., 158, 419-429: “Quantitative gene expression analysis in microdissected archival formalin-fixed and paraffin-embedded tumor tissue”; Krafft A E, et al. (1997) Mol. Diagn., 3, 217-230: “Optimization of the isolation and amplification of RNA from formalin fixed, paraffin-embedded tissue: The Armed Forces Institute of Pathology experience and literature review”. After standard tissue sample deparaffinization using xylene and alcohols, samples were lysed in a tris-chloride, EDTA, sodium dodecyl sulphate (SDS) and proteinase K containing buffer. RNA was then extracted with phenol-chloroform-isoamyl alcohol followed by precipitation with isopropanol in the presence of glycogen and sodium acetate. RNA was resuspended in RNA storage solution (Ambion Inc; Austin Tex., USA) and treated with DNAse I to avoid DNA contamination. cDNA was synthesized using M-MLV retrotranscriptase enzyme. Template cDNA was added to Taqman Universal Master Mix (AB; Applied Biosystems, Foster City, Calif., USA) in a 12.5-μl reaction with specific primers and probe for each gene. The primer and probe sets were designed using Primer Express 2.0 Software (AB). Quantification of gene expression was performed using the ABI Prism 7900HT Sequence Detection System (AB). Primers and probe for BRCA1 mRNA expression analysis were designed according to the Ref Seq NM_007294 (www.ncbi.nlm.nih.gov/LocusLink). Forward primer is located in exon 8 (position 4292 bp to 4317 bp), reverse primer in exon 9 (position 4336 bp to 4360 bp), and probe in the exon 8/9 junction (position 4313 bp to 4333 bp). The PCR product size generated with these primers was 69 bp. The primers and 5′ labeled fluorescent reporter dye (6FAM) probe were as follows: β-actin: forward 5′ TGA GCG CGG CTA CAG CTT 3′, reverse 5′ TCCTTAATGTCACGCACGATTT 3′, probe 5′ ACC ACC ACG GCC GAG CGG 3′; BRCA1: forward 5′GGCTATCCTCTCAGAGTGACATTTTA 3′, reverse 5′ GCTTTATCAGGTTATGTTGCATGGT 3′, probe 5′ CCA CTC AGC AGA GGG 3′.\nRelative gene expression quantification was calculated according to the comparative Ct method using β-actin as an endogenous control and commercial RNA controls (Stratagene, La Jolla, Calif.) as calibrators. Final results, were determined as follows: 2^−(ΔCt sample−ΔCt calibrator), where ΔCT values of the calibrator and sample are determined by subtracting the CT value of the target gene from the value of the β-actin gene. In all experiments, only triplicates with a standard deviation (SD) of the Ct value <0.20 were accepted. In addition, for each sample analyzed, a retrotranscriptase minus control was run in the same plate to assure lack of genomic DNA contamination (FIG. 1).\nIn order to provide an easily interpretable evaluation of the effect of BRCA1 mRNA expression, gene expression values were divided into quartiles. Interpatient variation coefficients were calculated to assess similarities between quartiles. Hazard ratios were calculated with the univariate Cox model, and comparison between Kaplan-Meier survival curves was performed with the log-rank test. […]"}, "[5]": {"settings": "bottom quartile of BRCA1 levels"}, "[6]": {"settings": "bottom quartile of BRCA1 levels, listed as Gemcitabine/Cisplatin"}, "[7]": {"settings": "middle quartiles of BRCA1 levels"}, "[8]": {"settings": "middle quartiles of BRCA1 levels, listed as Gemcitabine/Cisplatin"}, "[9]": {"settings": "top quartile of BRCA1 levels, listed as Gemcitabine/Cisplatin"}}, "data": [{"compound": "CC[C@]1(O)C[C@H]2CN(CCc3c([nH]c4ccccc34)[C@@](C(=O)OC)(c3cc4c(cc3OC)N(C=O)[C@H]3[C@@](O)(C(=O)OC)[C@H](OC(C)=O)[C@]5(CC)C=CCN6CC[C@]43[C@@H]65)C2)C1", "note": "[vincristine]", "values": [{"measurement": "Change of drug sensitivity on decreased BRCA1 mRNA expression", "setting": "breast cancer cell line", "value": "greater resistance"}]}, {"compound": "COc1cccc2c1C(=O)c1c(O)c3c(c(O)c1C2=O)C[C@@](O)(C(=O)CO)C[C@@H]3O[C@H]1C[C@H](N)[C@H](O)[C@H](C)O1", "note": "[doxorubicin]", "values": [{"measurement": "Sensitivity of BRCA1-disrupted mouse models", "setting": "[1]", "value": "highly sensitive"}]}, {"compound": "N.N.[Cl][Pt][Cl]", "note": "[cisplatin, cis-diaminodichloroplatinum]", "values": [{"measurement": "Change of drug sensitivity on decreased BRCA1 mRNA expression", "setting": "breast cancer cell line", "value": "greater sensitivity"}, {"measurement": "Change of drug resistance on upregulation of BRCA1 expression", "setting": "[2]", "value": "increased cisplatin resistance"}, {"measurement": "Increase in resistance on reconstitution of wild-type BRCA1", "setting": "[3]", "value": 20, "unit": "fold"}]}, {"compound": "CC(=O)O[C@H]1C(=O)[C@@]2(C)[C@H]([C@H](OC(=O)c3ccccc3)[C@]3(O)C[C@H](OC(=O)[C@H](O)[C@@H](NC(=O)c4ccccc4)c4ccccc4)C(C)=C1C3(C)C)[C@]1(OC(C)=O)CO[C@@H]1C[C@@H]2O", "note": "[paclitaxel]", "values": [{"measurement": "Change of drug sensitivity on decreased BRCA1 mRNA expression", "setting": "breast cancer cell line", "value": "greater resistance"}]}, {"compound": "COc1cc([C@@H]2c3cc4c(cc3[C@@H](O[C@@H]3O[C@@H]5CO[C@@H](C)O[C@H]5[C@H](O)[C@H]3O)[C@H]3COC(=O)[C@H]23)OCO4)cc(OC)c1O", "note": "[etoposide]", "values": [{"measurement": "Change of drug sensitivity on decreased BRCA1 mRNA expression", "setting": "breast cancer cell line", "value": "greater sensitivity"}]}, {"compound": "gemcitabine/cisplatin", "values": [{"measurement": "Patients who attained a complete pathologic response (T0N0)", "setting": "[4]; all in the bottom quartile of BRCA1 levels", "value": "Five"}, {"measurement": "Median survival", "setting": "[4]; all patients", "value": 37.8, "unit": "months"}, {"measurement": "Risk of death, hazard ratio", "setting": "[4]; bottom quartile compared to top quartile, unstratified", "value": 0.187}, {"measurement": "Radiographic Response: Partial Response", "setting": "[4]; [5]", "value": 66.7, "unit": "%"}, {"measurement": "Radiographic Response: Stable Disease", "setting": "[4]; [5]", "value": "(33.3) %"}, {"measurement": "Surgical Results: Complete Resection", "setting": "[4]; [5]", "value": 93.3, "unit": "%"}, {"measurement": "Radiographic Response: Progressive Disease", "setting": "[4]; bottom quartile of BRCA1 levels, number of patients", "value": 0, "unit": "N"}, {"measurement": "Radiographic Response: Partial Response", "setting": "[4]; [6]", "value": "(66.7) %"}, {"measurement": "Surgical Results: Complete Resection", "setting": "[4]; [6]", "value": "(93.3) %"}, {"measurement": "Median survival", "setting": "[4]; bottom quartile of BRCA1 mRNA levels (0.28-0.61), 15 patients", "value": "not reached"}, {"measurement": "Radiographic Response: Partial Response", "setting": "[4]; [7]", "value": 57.1, "unit": "%"}, {"measurement": "Radiographic Response: Progressive Disease", "setting": "[4]; [7]", "value": "(7.1) %"}, {"measurement": "Radiographic Response: Stable Disease", "setting": "[4]; [7]", "value": "(35.7) %"}, {"measurement": "Surgical Results: Complete Resection", "setting": "[4]; [7]", "value": 78.6, "unit": "%"}, {"measurement": "Radiographic Response: Partial Response", "setting": "[4]; [8]", "value": "(57.1) %"}, {"measurement": "Surgical Results: Complete Resection", "setting": "[4]; [8]", "value": "(78.6) %"}, {"measurement": "Median survival", "setting": "[4]; patients who underwent lobectomy", "value": 51.9, "unit": "months"}, {"measurement": "Median survival", "setting": "[4]; patients who underwent pneumonectomy", "value": 25.8, "unit": "months"}, {"measurement": "Risk of death, hazard ratio", "setting": "[4]; stratified by clinical stage, bottom quartile compared to top quartile", "value": 0.220}, {"measurement": "Risk of death, hazard ratio", "setting": "[4]; stratified by clinical stage, two middle quartiles compared to top quartile", "value": 0.430}, {"measurement": "Risk of death, hazard ratio", "setting": "[4]; stratified by pathologic stage, bottom quartile compared to top quartile", "value": 0.206}, {"measurement": "Risk of death, hazard ratio", "setting": "[4]; stratified by pathologic stage, two middle quartiles compared to top quartile", "value": 0.294}, {"measurement": "Radiographic Response: Partial Response", "setting": "[4]; top quartile of BRCA1 levels", "value": 58.3, "unit": "%"}, {"measurement": "Radiographic Response: Progressive Disease", "setting": "[4]; top quartile of BRCA1 levels", "value": "(8.3) %"}, {"measurement": "Radiographic Response: Stable Disease", "setting": "[4]; top quartile of BRCA1 levels", "value": "(33.3) %"}, {"measurement": "Surgical Results: Complete Resection", "setting": "[4]; top quartile of BRCA1 levels", "value": 83.3, "unit": "%"}, {"measurement": "Radiographic Response: Partial Response", "setting": "[4]; [9]", "value": "(58.3) %"}, {"measurement": "Surgical Results: Complete Resection", "setting": "[4]; [9]", "value": "(83.3) %"}, {"measurement": "Median survival", "setting": "[4]; top quartile of BRCA1 mRNA levels (2.45-10.43), 12 patients", "value": 12.7, "unit": "months"}, {"measurement": "Risk of death, hazard ratio", "setting": "[4]; two middle quartiles compared to top quartile, unstratified", "value": 0.382}, {"measurement": "Median survival", "setting": "[4]; two middle quartiles of BRCA1 mRNA levels (0.65-2.37), 28 patients", "value": 37.8, "unit": "months"}]}, {"compound": "CC/C(=C(\\c1ccccc1)c1ccc(OCCN(C)C)cc1)c1ccccc1", "note": "[tamoxifen]", "values": [{"measurement": "Sensitivity of BRCA1-disrupted mouse models", "setting": "[1]", "value": "resistant"}]}]}
